Each block holds one compound with its values, some of them ahead of it.
Experiments:
[1] = test system: Akt; assay: Capillary Western and cIEF immunoassays of pAkt (Thr308), pAkt (Thr450), pAkt (Ser473); format: cell-based, human; conditions: for increase of pAkt (Ser473) phosphorylation / increase of pAkt (Thr308) phosphorylation / increase of pAkt (Thr450) phosphorylation: 30 minutes treatment, versus untreated control, capillary Western densitometry
Protocol: (§1) Human Primary Preadipocytes. Primary human preadipocytes were isolated from omental adipose tissues overweight and diabetic donors who were undergoing elective surgery using a previously published protocol. Primary human preadipocytes were maintained in growth media comprising Minimum Essential Medium a supplemented with 10% fetal bovine serum, 100 units/ml penicillin, and 100 μg/ml streptomycin.
(§2) Screening for Insulin-Sensitizing Phytonutrients. Primary human preadipocytes were treated for 30 minutes with 100 nM insulin (Humulin R, Eli Lilly, Indianapolis, Ind.), individual phytonutrients (Table 1 & Table 2), or combinations of insulin and phytonutrients. Total cell extracts (TCE) were collected and subjected to nanofluidic proteomic analysis including capillary isoelectric focusing (cIEF) immunoassays and capillary Western (CW) immunoassays.
(§3) Preparation of Total Cell Extracts. Approximately one million cells were incubated on ice for 10 minutes with 60 μl of lysis buffer (cat. no. 040-764, ProteinSimple, Santa Clara, Calif., USA), sonicated 4 times for 5 seconds each, mixed by rotation for 2 hours at 4° C., and centrifuged at 12,000 rpm in an Eppendorf 5430R microfuge for 20 minutes at 4° C. The supernatant was collected as the cell lysate. The total protein concentration in the cell lysate was determined with a Bradford protein assay and adjusted to a final concentration of 0.3 μg/μl with separation gradients (cat. no. Premix G2, pH 5-8, ProteinSimple, Santa Clara, Calif.) for charge-based cIEF immunoassays or to 0.4 μg/μl with denaturing buffers (cat. no. PS-ST01EZ or PS-ST03EZ, ProteinSimple) for size-based Western immunoassays.
(§4) Capillary Isoelectric Focusing Immunoassays. Cell lysates in separation gradients were loaded into 384-well assay plates (cat. no. 040-663, ProteinSimple) preloaded with primary and secondary antibodies and chemiluminescent substrates. Charge-based protein separation and detection in individual capillaries were performed using the default protocols of the NanoPro 1000 system (ProteinSimple). Hsp70 was used as the loading control. All cIEF immunoassays were performed in triplicate for each protein, and duplicate experiments were performed for each treatment condition, producing six repeated measurements per protein.
Capillary Western Immunoassays. Cell lysates in denaturing buffers were denatured at 95° C. for 5 minutes, and then transferred to assay plates (cat. no. SM-W004 or SM-W008, ProteinSimple) preloaded with blocking reagents, wash buffer, primary and secondary antibodies, and chemiluminescent substrates. Sized-based protein separation and detection in capillaries were performed using the default protocols of the Jess system (ProteinSimple). β-Actin was used as loading controls. All capillary Western immunoassays were performed in triplicate for each protein, and duplicate experiments were performed for each treatment condition, producing six repeated measurements per protein.

[2] = test system: Akt2; assay: Screening for insulin-sensitizing phytonutrients: cIEF immunoassays of Akt2 phosphorylation; format: cell-based, human; conditions: for EC50: half-maximal effective concentration, primary human preadipocytes; for Akt2 phosphorylation on cIEF electropherogram: treatment alone, 30 minutes, versus untreated control; for increase of insulin-stimulated pAkt2 (Ser473) phosphorylation: together with 100 nM insulin, compared to insulin alone, cIEF
From the text: (§5) Mapping Akt Isoforms Using Capillary Isoelectric Focusing (cIEF) Immunoassays. cIEF immunoassays separate proteins in total cell extracts (TCEs) by their isoelectric points (pIs) in nano-capillaries. The positions of the proteins are stabilized via UV-irradiated crosslinking of proteins to the sidewalls of the capillaries. A primary antibody that recognizes a specific protein of interest is introduced to individual capillaries. Then a secondary antibody linked to horseradish peroxidase is introduced. Following the introduction of the chemiluminescent substrates, the distribution of the isoforms of a protein is detected and presented graphically as electropherograms of intensity versus isoelectric points. Phosphorylation and acetylation of a protein generally leads to shifts toward lower pI values. In contrast, glycosylation of a protein generally leads to a shift toward higher pI values.
as §1, §2, §3, §4

[3] = test system: Akt1; assay: cIEF immunoassays of Akt1; format: cell-based, human; conditions: for Akt1 cIEF electropherogram: treatment alone, 30 minutes, versus untreated
From the text: as §5, §2
as §3, with “The supernatant was collected as the cell lysate.” left out, “immunoassays. […]” for “immunoassays.”

[4] = test system: primary human preadipocytes; assay: Glucose uptake assay (2-NBDG, flow cytometry); format: cell-based; conditions: together with 100 nM insulin, compared to insulin alone, 30 minutes
Protocol: The glucose uptake assay used 2-NBDG, a fluorescently-labeled deoxyglucose analog, as a probe for the detection of glucose taken up by human primary preadipocytes. Flow cytometry was used to detect 2-NBDG uptake in single preadipocytes.
Glucose Uptake Assays. Primary human preadipocytes grown to 70% confluence in growth media, washed with phosphate buffered saline, and replaced with glucose-free DMEM media. Following 2 hours of incubation in glucose-free DMEM media, preadipocytes were treated with 100 μg/ml of 2-NDBG fluorescent glucose analog and insulin (100 nM) or phytonutrients (EC50) for 30 minutes. Preadipocytes were collected and analyzed using the Acuri C6 flow cytometer (BD Biosciences, San Jose, Calif.) and the 485 nm excitation and 535 nm emission filters.

[5] = test system: Akt3; assay: cIEF immunoassays of Akt3; format: cell-based, human; conditions: for Akt3 cIEF electropherogram: treatment alone, 30 minutes, versus untreated
From the text: as §5, §2
as §3, with “The supernatant was collected as the cell lysate.” left out, “immunoassays. […]” for “immunoassays.”

[6] = test system: primary human preadipocytes; assay: Adipogenesis assay (adipogenic biomarkers, Oil Red O staining); format: cell-based; conditions: for EC50: read-out: EC50 (anti-adipogenic phytonutrients)
Protocol: Adipogenesis Assays. Primary human preadipocytes were grown to confluence in growth media. At 2 days post-confluence, growth media were aspirated off the culture dishes and complete differentiation media were added. Complete differentiation media comprise […] with 18.5 mM glucose, HEPES (15 mM), NaHCO3 (25 mM), 100 units/ml penicillin, 100 μg/ml streptomycin, d-biotin (33 μM), pantothenate (17 μM), dexamethasone (100 nM), insulin (100 nM), rosiglitazone (1 μM), IBMX (0.5 mM), triiodothyronine (T3, 2 nM), and transferrin (10 μg/ml). On day three post-differentiation, complete differentiation media were replenished. On day seventh post-differentiation, complete differentiation media were replaced with maintenance media. Maintenance media comprise […], 100 units/ml penicillin, 100 μg/ml streptomycin, HEPES (15 mM), NaHCO3 (25 mM), d-biotin, pantothenate, insulin (10 nM), and dexamethasone (10 nM). Maintenance media were replenished on days tenth post-differentiation. Complete differentiation of preadipocytes into adipocytes were achieved on day fourteenth post-differentiation. To screen for anti-adipogenic phytonutrients, individual phytonutrients were mixed in complete differentiation media from day 0 to day 6th post-differentiation. Phytonutrients were removed together with complete differentiation media on day 7th post-differentiation following the replacement with maintenance media. Anti-adipogenic phytonutrients were identified based on their ability to: (1) suppress the expression of adipogenic biomarkers using proteomic assays of total cell extracts collected on day 6th post-differentiation, and (2) suppress intracellular lipid droplet accumulation using Oil Red O staining assays on day 14th post-differentiation.

[7] = together with insulin, compared to insulin alone
[8] = half-maximal effective concentration, primary human preadipocytes

Compound: O=CC=Cc1ccccc1 [Cinnamaldehyde]
increase of pAkt (Ser473) phosphorylation [1]: no effect
increase of pAkt (Thr308) phosphorylation [1]: no effect
increase of pAkt (Thr450) phosphorylation [1]: 1.6 folds
increase of insulin-stimulated pAkt (Ser473) phosphorylation ([1]; together with 100 nM insulin, compared to insulin alone, cIEF and CW immunoassays): ~4 folds
EC50 [2]: 40 µM
Akt2 phosphorylation on cIEF electropherogram [2]: new peak at pI 5.41
phosphorylation of Akt1 on cIEF electropherogram [3, 7]: no observable effect
Akt1 cIEF electropherogram [3]: no observable effect
increase of insulin-stimulated glucose uptake by preadipocytes [4]: approximately 1.6 folds
phosphorylation of Akt3 on cIEF electropherogram [5, 7]: no observable effect
Akt3 cIEF electropherogram [5]: no observable effect

EC50 (anti-adipogenic phytonutrients) [6, 8]: 100 µg/mL
Compound: Fucoidan

EC50 [6, 8]: 10 µM
Compound: COc1ccc2cc3[n+](cc2c1OC)CCc1cc2c(cc1-3)OCO2 [Berberine]
inhibition of adipogenesis ([6]; differentiating primary human preadipocytes): strong inhibitor of adipogenesis
increase of insulin-stimulated pAkt2 (Ser473) phosphorylation [2]: no effect
Akt2 phosphorylation on cIEF electropherogram [2]: no effect
increase of insulin-stimulated glucose uptake by preadipocytes [4]: no effect

EC50 [6, 8]: 50 µM
Compound: O=c1c(O)c(-c2ccc(O)c(O)c2)oc2cc(O)ccc12 [Fisetin]

Compound: insulin: 100 nM insulin (Humulin R, Eli Lilly) [reference compound]
increase of pAkt (Ser473) phosphorylation [1]: ~5.7 folds
increase of pAkt (Thr308) phosphorylation [1]: approximately 3 folds
increase of pAkt (Thr450) phosphorylation [1]: ~1.6 folds
Akt2 phosphorylation on cIEF electropherogram [2]: two new peaks at pI 5.20 and pI 5.30
Akt1 cIEF electropherogram [3]: nearly identical
Akt3 cIEF electropherogram [5]: two new peaks at pI 5.03 and pI 5.12

EC50 [6, 8]: 20 µM
Compound: O=C(O[C@@H]1Cc2c(O)cc(O)cc2O[C@@H]1c1cc(O)c(O)c(O)c1)c1cc(O)c(O)c(O)c1 [Epigallocatechin Gallate]

EC50 [6, 8]: 40 µM
Compound: Oc1ccc(C=Cc2cc(O)cc(O)c2)cc1 [Resveratrol]

EC50 [6, 8]: 20 µM
Compound: O=c1cc(-c2ccc(O)c(O)c2)oc2cc(O)cc(O)c12 [Luteolin]

Compound: COc1ccc([C@@H]2CC(=O)c3c(O)cc(O[C@@H]4O[C@H](CO[C@@H]5O[C@@H](C)[C@H](O)[C@@H](O)[C@H]5O)[C@@H](O)[C@H](O)[C@H]4O)cc3O2)cc1O [Hesperidin]
EC50 [6, 8]: 20 µM

Compound: COc1cc(/C=C/C(=O)CC(=O)/C=C/c2ccc(O)c(OC)c2)ccc1O [Curcumin]
EC50 [2]: 20 µM
increase of insulin-stimulated pAkt2 (Ser473) phosphorylation [2]: approximately 4 folds
Akt2 phosphorylation on cIEF electropherogram [2]: new peak at pI 5.41
increase of insulin-stimulated glucose uptake by preadipocytes [4]: ~1.7 folds

EC50 [6, 8]: 25 µM
Compound: O=c1c(O)c(-c2ccc(O)c(O)c2)oc2cc(O)cc(O)c12 [Quercetin]

EC50 [6, 8]: 20 µM
Compound: OCc1c[nH]c2ccccc12 [Indole-3-Carbinol]
